Source: patent US8987257B2 (Novartis AG, priority 2011, dated 2015)
pEC50, pIC50: −log10 of the molar value.

Assays:
PI3Kα = PI3Kα (Homo sapiens (Human), UniProt P42336); assay: Test 1: PI3 Kinase Assay (PI3K KinaseGlo assay); assay type: biochemical; conditions: 1 μM ATP
FRAP1/mTOR = FRAP1/mTOR (Homo sapiens (Human), UniProt P42345); assay: Test 2: mTOR Biochemical Assay (FRAP1/mTOR TR-FRET tracer assay); assay type: binding; conditions: mTOR Kinase Tracer 314
[1] = system: constitutively active mTOR; assay: Test 3: TSC Assay (high content imaging of phospho-S6 (240/244) in TSC1−/− MEFs); assay type: cell-based; conditions: Mus musculus, pS6 240/244 staining, 2 hrs compound treatment
H4 mCherry-GFP-LC3 cells = assay: Test 4: Autophagy Assay (mCherry-GFP-LC3 reporter, high-content imaging); assay type: cell-based; conditions: Homo sapiens, 16-18 h
Source text: Autophagy is a catabolic pathway that degrades bulk cytosol in lysosomal compartments enabling amino acids and fatty acids to be recycled. […] To quantify autophagy induction by mTOR inhibitors, we use a mCherry-GFP-LC3 reporter which is amenable to retroviral delivery into mammalian cells, stable expression and analysis by fluorescence microscopy.
Described hereinafter is an imaging protocol and image recognition algorithm to visualize and measure changes in the autophagic pathway.
Quantification of Autophagy Using High-Content Imaging and Analysis
• 1. Day 0: Cell plating. Subconfluent H4 mCherry-GFP-LC3 cells are harvested by trypsinization, resuspended in growth medium, and counted (H4 cells: Human neuroglioma cell line (ATCC)). A cell suspension of 66′000 cells/mL is prepared and 30 μL are added into the wells of a 384-well plate using an electronic multichannel pipette. […] The cell plates are briefly spun down and placed at 37° C. and 5% CO2. • 2. Day 1: Compound treatment. Compound dose responses are prepared in DMSO. The dose responses are then diluted 1:50 in medium. 10 ul of the diluted compound is added to 30 ul of cells, yielding a final 1:200 dilution of the original compound and final of 0.5% DMSO. Compound-treatments are performed in triplicates. The 384-well plates are placed at 37° C. and 5% CO2. Compound treatment is performed for 16-18 h (see Note 1). • 3. Day 2: Cell fixation. Cells are fixed by adding 10 μL/well 5× concentrated Mirsky's fixative supplemented with 25 μg/mL Hoechst33342. […] The 384-well plate is briefly spun down and incubated for 1 h at room temperature. Cells are then washed using a 384-well plate washer using a protocol which aspirates the volume down to 10 μL/well before dispensing 100 μL/well 1×TBS. Aspiration and dispensing steps are repeated 4 times and a final volume of 100 μL/well is left. The plate is sealed using an adhesive PCR foil. • 4. Imaging. The bottom of the plate is cleaned with 70% ethanol and then imaged using the InCell 1000 automated epifluorescence microscope. 20× magnification is used and 4 different areas (fields) are imaged per well, this typically captures a total of around 400 cells per well. Hoechst33342 images are acquired using an excitation of 360 nm (D360—40× filter), an emission of 460 nm (HQ460—40M filter) and an exposure time of 150 ms. GFP images are acquired using an excitation of 475 nm (S47520× filter), an emission of 535 nm (HQ535—50M filter) and an exposure time of 1 s. mCherry images are acquired using an excitation of 535 nm (HQ535—50× filter), an emission of 620 nm (HQ620—60M filter) and an exposure time of 1 s. A quadruple band pass mirror is used for all images. • 5. Image analysis. The InCell Analysis software is used to analyze the images using the Multi Target Analysis algorithm. First, nuclei are detected in the Hoechst33342 image using top-hat segmentation and a minimal nuclear area of 50 μm^2. Cells are defined using a collar of 10 μm around the nuclei. Second, puncta (organelles) are identified in the mCherry image inside the cells using multi-top-hat segmentation. Third, the mask of the mCherry puncta is transferred onto the GFP image. Fourth, the GFP fluorescence intensity inside the mCherry puncta mask is measured (reference intensity). • 6. The ‘organelles’ parameter reflects mCherry-positive puncta of the mCherry-GFP-LC3 reporter and is used to calculate ‘LC3 puncta/cell’. For this purpose, the number of organelles is calculated per cell and averaged over all the cells in a given well (average per cell basis). mCherry-positive LC3 puncta numbers (y-axis) are plotted against the compound dose response values (x-axis) and EC50 values are calculated for each compound. EC50 values represent compound potency in terms of autophagy activation (e.g. increase in mCherry-positive LC3 puncta count). Notes • 1. Autophagy-modulation and redistribution of mCherry-GFP-LC3 can be already observed after a compound treatment time of 3-4 h. […]

[2] = Table 1, mCherry-positive LC3 puncta/cell
[3] = Table 4 (unit inferred), mCherry-positive LC3 puncta/cell

Chain of FRAP1/mTOR (P42345 1360-2549): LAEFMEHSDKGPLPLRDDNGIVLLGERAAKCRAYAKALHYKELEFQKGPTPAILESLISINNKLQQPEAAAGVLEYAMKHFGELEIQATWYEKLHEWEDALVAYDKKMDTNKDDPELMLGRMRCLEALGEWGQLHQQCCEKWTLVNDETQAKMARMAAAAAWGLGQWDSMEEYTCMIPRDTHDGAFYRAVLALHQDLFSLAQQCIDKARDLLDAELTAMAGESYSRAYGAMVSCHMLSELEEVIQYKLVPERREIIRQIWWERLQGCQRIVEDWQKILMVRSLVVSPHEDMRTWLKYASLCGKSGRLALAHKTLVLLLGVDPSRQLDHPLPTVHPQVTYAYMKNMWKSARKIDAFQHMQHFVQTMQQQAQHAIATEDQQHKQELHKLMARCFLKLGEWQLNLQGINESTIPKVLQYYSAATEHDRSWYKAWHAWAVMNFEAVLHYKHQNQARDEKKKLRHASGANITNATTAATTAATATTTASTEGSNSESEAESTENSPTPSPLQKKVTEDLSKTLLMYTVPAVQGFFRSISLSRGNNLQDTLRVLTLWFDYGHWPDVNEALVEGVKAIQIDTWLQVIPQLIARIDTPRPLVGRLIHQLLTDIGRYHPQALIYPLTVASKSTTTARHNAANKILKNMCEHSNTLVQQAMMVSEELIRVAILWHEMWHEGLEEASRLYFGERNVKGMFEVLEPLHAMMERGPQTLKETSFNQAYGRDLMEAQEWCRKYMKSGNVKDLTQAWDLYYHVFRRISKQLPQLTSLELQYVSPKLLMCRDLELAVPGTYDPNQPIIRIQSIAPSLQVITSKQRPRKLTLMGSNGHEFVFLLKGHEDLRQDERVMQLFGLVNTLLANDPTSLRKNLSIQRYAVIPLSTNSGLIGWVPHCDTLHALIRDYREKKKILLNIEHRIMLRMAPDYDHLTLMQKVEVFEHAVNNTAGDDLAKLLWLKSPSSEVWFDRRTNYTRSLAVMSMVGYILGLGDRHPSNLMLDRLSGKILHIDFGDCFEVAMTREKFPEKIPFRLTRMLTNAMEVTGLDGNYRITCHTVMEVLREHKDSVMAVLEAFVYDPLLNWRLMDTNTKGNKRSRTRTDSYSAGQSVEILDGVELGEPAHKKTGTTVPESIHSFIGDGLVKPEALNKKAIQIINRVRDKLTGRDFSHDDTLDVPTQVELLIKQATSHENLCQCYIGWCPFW
Chain of PI3Kα (P42336 other isoform, or with tags, fused parts or gaps): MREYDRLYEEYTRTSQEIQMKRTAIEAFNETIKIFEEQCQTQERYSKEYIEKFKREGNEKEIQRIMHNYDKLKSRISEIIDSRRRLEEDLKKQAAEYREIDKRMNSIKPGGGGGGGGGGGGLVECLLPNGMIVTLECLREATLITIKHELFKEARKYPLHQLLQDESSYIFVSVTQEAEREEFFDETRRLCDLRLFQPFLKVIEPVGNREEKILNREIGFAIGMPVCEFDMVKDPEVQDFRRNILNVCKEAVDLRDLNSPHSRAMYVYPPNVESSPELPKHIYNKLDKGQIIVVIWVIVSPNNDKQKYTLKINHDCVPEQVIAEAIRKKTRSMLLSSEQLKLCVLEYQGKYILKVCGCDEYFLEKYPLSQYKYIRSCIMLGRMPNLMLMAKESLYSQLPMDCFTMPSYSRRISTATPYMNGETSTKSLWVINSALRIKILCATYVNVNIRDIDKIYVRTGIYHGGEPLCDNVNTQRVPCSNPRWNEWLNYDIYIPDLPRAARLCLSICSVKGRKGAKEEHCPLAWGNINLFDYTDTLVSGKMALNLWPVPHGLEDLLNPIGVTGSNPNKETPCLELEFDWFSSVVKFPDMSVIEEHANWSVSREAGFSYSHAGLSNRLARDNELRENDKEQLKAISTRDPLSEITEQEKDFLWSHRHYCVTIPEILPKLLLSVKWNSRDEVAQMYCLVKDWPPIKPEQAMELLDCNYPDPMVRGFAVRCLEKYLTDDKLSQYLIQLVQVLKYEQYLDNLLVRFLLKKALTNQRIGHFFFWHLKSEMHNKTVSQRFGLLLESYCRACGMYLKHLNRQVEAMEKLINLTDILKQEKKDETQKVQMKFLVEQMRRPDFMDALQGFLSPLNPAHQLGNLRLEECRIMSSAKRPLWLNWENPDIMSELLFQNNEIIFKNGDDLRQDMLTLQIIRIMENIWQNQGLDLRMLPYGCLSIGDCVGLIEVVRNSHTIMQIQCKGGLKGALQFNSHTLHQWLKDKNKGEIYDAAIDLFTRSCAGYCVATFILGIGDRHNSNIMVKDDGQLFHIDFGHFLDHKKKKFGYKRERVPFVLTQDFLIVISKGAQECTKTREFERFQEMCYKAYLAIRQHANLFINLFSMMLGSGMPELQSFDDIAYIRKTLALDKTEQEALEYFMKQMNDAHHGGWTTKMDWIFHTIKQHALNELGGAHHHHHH

SMILES	pIC50 (PI3Kα)	pIC50 (FRAP1/mTOR)	pIC50 [1]	pEC50 (H4 mCherry-GFP-LC3 cells; [2])	pEC50 (H4 mCherry-GFP-LC3 cells; [3])
C[C@H]1COCCN1c1nc(N2CCOCC2)nc2[nH]c(-c3cccc4[nH]ccc34)nc12 [Example 23, 8-(1H-Indol-4-yl)-6-((S)-3-methyl-morpholin-4-yl)-2-morpholin-4-yl-9H-purine]	5.26	7.85	6.86	5.79	–
C[C@@H]1COCCN1c1nc(N2CCOC[C@H]2C)c2nc(-c3cccc4c3CCN4)[nH]c2n1 [Example 42, 8-(2,3-Dihydro-1H-indol-4-yl)-2,6-bis-((R)-3-methyl-morpholin-4-yl)-9H-purine]	5.31	7.40	7.00	–	5.33
C[C@H]1COCCN1c1nc(N2CCOC[C@@H]2C)c2nc(-c3ccnc4[nH]ccc34)[nH]c2n1 [Example 3, 2,6-Bis-((S)-3-methyl-morpholin-4-yl)-8-(1H-pyrrolo[2,3-b]pyridin-4-yl)-9H-purine]	5.19	6.29	5.63	< 5.70	–
C[C@H]1COCCN1c1nc(N2CCOCC2)nc2[nH]c(-c3cc(CO)ccc3Cl)nc12 [Example 10, {4-Chloro-3-[6-((S)-3-methyl-morpholin-4-yl)-2-morpholin-4-yl-9H-purin-8-yl]-phenyl}-methanol]	6.14	5.74	5.24	< 5.00	–
C[C@@H]1COCCN1c1nc(N2CCOC[C@@H]2C)nc2[nH]c(-c3ccc4cc[nH]c4c3)nc12 [Example 44, 8-(1H-Indol-6-yl)-2-((S)-3-methyl-morpholin-4-yl)-6-((R)-3-methyl-morpholin-4-yl)-9H-purine]	5.23	6.85	6.41	–	6.40
C[C@@H]1COCCN1c1nc(N2CCOC[C@@H]2C)nc2[nH]c(-c3cccc4[nH]ccc34)cc12 [Example 55, 6-(1H-Indol-4-yl)-4-((R)-3-methyl-morpholin-4-yl)-2-((S)-3-methyl-morpholin-4-yl)-7H-pyrrolo[2,3-d]pyrimidine]	5.84	5.57	7.15	–	6.00

Continued, values first:

pIC50 (PI3Kα)	pIC50 (FRAP1/mTOR)	pIC50 [1]	pEC50 (H4 mCherry-GFP-LC3 cells; [2])	pEC50 (H4 mCherry-GFP-LC3 cells; [3])	SMILES
5.41	5.92	5.68	< 5.30	–	Nc1cccc(-c2nc3c(N4CCOCC4)nc(N4CCOCC4)nc3[nH]2)c1 [Example 29, 3-(2,6-Di-morpholin-4-yl-9H-purin-8-yl)-phenylamine]
7.40	6.47	5.14	5.23	–	c1cc(-c2nc3c(N4CCOCC4)nc(N4CCOCC4)nc3[nH]2)c2cn[nH]c2c1 [Example 27, 8-(1H-Indazol-4-yl)-2,6-di-morpholin-4-yl-9H-purine]
5.09	5.62	5.22	< 5.70	–	NCc1cccc(-c2nc3c(N4CCOCC4)nc(N4CCOCC4)nc3[nH]2)c1 [Example 11, 3-(2,6-Di-morpholin-4-yl-9H-purin-8-yl)-benzylamine]
5.52	5.84	5.82	< 5.70	–	CC(=O)Nc1cccc(-c2nc3c(N4CCOCC4)nc(N4CCOCC4)nc3[nH]2)c1 [Example 30, N-[3-(2,6-Di-morpholin-4-yl-9H-purin-8-yl)-phenyl]-acetamide]
